Data taken from patent US8846671B2, “Heterocyclic alkynyl benzene compounds and medical compositions and uses thereof” (Guangzhou Institute of Biomedicine and Health, Chinese …, priority 2010, dated 2014).
pIC50: −log10 of the molar value. “And” between values parts separate entries of the source, which are not always exact repeats. Equal entries are not always repeated. Where two headings read alike, the source gives them in different places.

Assays:
[1] = tested on: K562R cells (imatinib-resistant cell line); assay: tumor cell proliferation, MTT or CCK8 assay, 72 h incubation; type: cell-based; conditions: Homo sapiens, K-562R, read-out: IC50 on tumor cell proliferation, K562R cells
[2] = biological target: BAF3-T315I cells (Ba/F3 cell line stably expressing BCR/ABL T315I) (Homo sapiens, UniProt P00519, T315I, cells depend on it); assay: as above; type: cell-based, mice
Method: (§1) The heterocyclic alkynyl benzene compounds at different concentrations (1×10^−10˜1×10^−5M) were incubated for 72 hours individually applied to 6 cell lines K562 (human CML cell line), MOLT-4 (human ALL cell line), U937 (human CML cell line), MEG-01 (human CML cell line), L78 (human lung cancer cell line), Ba/F3-T315I (mice Pro-B cells transformed with Bcr-AblT315I and STI57′-resistant cell line). After incubation for 72 hrs, cell proliferation was then determined by MTT assay or CCK8 assay, and 4 hr incubation is further conducted, the absorbance at 570 nm (CCK8, 450 nm, 650 nm) was measured using enzyme Microplate Reader.

[3] = tested on: MEG-01 (Human megakaryoblastic leukaemia cell line); assay: as above; type: cell-based; conditions: MEG-01, 72 h, read-out: IC50 on tumor cell proliferation, MEG-01; for IC50: MTT or CCK8, nM
Method: as §1, with “Reader. […] Based on the inhibition potency of the heterocyclic alkynyl benzene compounds on the cell proliferation, IC50 values were calculated and summarized in the Table 1 and Table 2 (The compounds used were synthesized by Examples 1-40, and the compounds are marked with Drug No. series in Table 1).” for “Reader.”

[4] = tested on: MOLT-4 (Human acute lymphoblastic leukemia cell line); assay: as above; type: cell-based; conditions: MOLT-4, 72 h, read-out: IC50 on tumor cell proliferation, MOLT-4; for IC50: MTT or CCK8, nM
Method: as §1, with “Reader. […] Based on the inhibition potency of the heterocyclic alkynyl benzene compounds on the cell proliferation, IC50 values were calculated and summarized in the Table 1 and Table 2 (The compounds used were synthesized by Examples 1-40, and the compounds are marked with Drug No. series in Table 1).” for “Reader.”

[5] = tested on: K562 (human chronic myelogenous leukemia cell line); assay: as above; type: cell-based; conditions: K562, 72 h, read-out: IC50 on tumor cell proliferation, K562; for IC50: MTT or CCK8, nM
Method: as §1, with “Reader. […] Based on the inhibition potency of the heterocyclic alkynyl benzene compounds on the cell proliferation, IC50 values were calculated and summarized in the Table 1 and Table 2 (The compounds used were synthesized by Examples 1-40, and the compounds are marked with Drug No. series in Table 1).” for “Reader.”

U937 Cell line = assay: as above; type: cell-based; conditions: Homo sapiens, read-out: IC50 on tumor cell proliferation, U937; for IC50: nM
Method: as §1, with “Reader. […] Based on the inhibition potency of the heterocyclic alkynyl benzene compounds on the cell proliferation, IC50 values were calculated and summarized in the Table 1 and Table 2 (The compounds used were synthesized by Examples 1-40, and the compounds are marked with Drug No. series in Table 1).” for “Reader.”

[6] = Pharmacokinetics and bioavailability in rats; type: in vivo; conditions: SD rats; corresponding pharmaceutical acceptable salt forms
Method: Pharmacokinetics and bioavailability in rats. […] The blood samples were collected at the proper time points after administration, add heparin-anticoagulant, and the supernatants of the blood samples were collected (3000 rpm, 10 min) and stored at -20° C. for HPLC-MS analysis. After protein-precipitation procedure with acetonitrile, supernatants were collected after 3000 rpm, 10 min for analysis with HPLC-MS. The data were analyzed with software DAS2.0 to separately acquire the parameters of compartment models and non-compartment models. The bioavailability was calculated according to AUC data.

[7] = Ba/F3 expressing BCR/ABL T315I, 72 h, Table 1, read-out: IC50 on tumor cell proliferation, BAF3-T315I cells
[8] = read-out: IC50 on tumor cell proliferation, BAF3-T315I cells, Ba/F3 expressing BCR/ABL T315I, 72 h, Table 1

| pIC50 ([1]; imatinib-resistant K562R) | GI50 [2, 7] | IC50 [5] | pIC50 [1] | GI50 [2, 8] | pIC50 [3] | pIC50 [4] | pIC50 (U937 Cell line; U-937, 72 h) | pIC50 [5] | IC50 [3] | IC50 [4] | IC50 (U937 Cell line; U-937, 72 h, MTT or CCK8) | Structure (SMILES) | further results |
| --- | --- | --- | --- | --- | --- | --- | --- | --- | --- | --- | --- | --- | --- |
| – | – | – | 7.20 | 124 nM and 85.8 nM | < 7.00 | 6.88 | 6.83 | 8.82 | – | – | – | Cc1cn(-c2cc(NC(=O)c3ccc(C)c(C#Cc4cnc(N)nc4)c3)cc(C(F)(F)F)c2)cn1 [D803, 3-(2-(2-aminopyrimidin-5-yl)ethynyl)-4-methyl-N-(3-(4-methyl-1H-imidazol-1-yl)-5-(trifluoromethyl)phenyl)benzamide] | – |
| – | – | – | – | 1890 nM | 6.88 | < 7.00 | 6.83 | < 7.00 | – | – | – | Cc1cn(-c2cc(NC(=O)c3ccc(C)c(C#Cc4cnc(NC(C)(C)C)nc4)c3)cc(C(F)(F)F)c2)cn1 [D806, 3-(2-(2-(tert-butylamino)pyrimidin-5-yl)ethynyl)-4-methyl-N-(3-(4-methyl-1H-imidazol-1-yl)-5-(trifluoromethyl)phenyl)benzamide] | – |
| – | – | – | 6.75 | 102 nM and 71.1 nM | 6.94 | < 7.00 | < 7.00 | < 7.00 | – | – | – | Cc1cn(-c2cc(NC(=O)c3ccc(C)c(C#Cc4cnc(Nc5ccccc5)nc4)c3)cc(C(F)(F)F)c2)cn1 [D809, 4-methyl-N-(3-(4-methyl-1H-imidazol-1-yl)-5-(trifluoromethyl)phenyl)-3-(2-(2-(phenylamino)pyrimidin-5-yl)ethynyl)benzamide] | – |

More lines, now with the values behind:

| Structure (SMILES) | pIC50 ([1]; imatinib-resistant K562R) | GI50 [2, 7] | IC50 [5] | pIC50 [1] | GI50 [2, 8] | pIC50 [3] | pIC50 [4] | pIC50 (U937 Cell line; U-937, 72 h) | pIC50 [5] | IC50 [3] | IC50 [4] | IC50 (U937 Cell line; U-937, 72 h, MTT or CCK8) | further results |
| --- | --- | --- | --- | --- | --- | --- | --- | --- | --- | --- | --- | --- | --- |
| Cc1ccc(C(=O)Nc2cc(-n3ccnc3)cc(C(F)(F)F)c2)cc1C#Cc1cnc(NC2CC2)nc1 [D729, N-(3-(1H-imidazol-1-yl)-5-(trifluoromethyl)phenyl)-3-(2-(2-(cyclopropylamino)pyrimidin-5-yl)ethynyl)-4-methylbenzamide] | 7.14 | 49.7 nM | 2.09 nM | – | – | – | – | – | – | – | – | – | GI50 ([2]; Ba/F3 carrying T315I Bcr-Abl, STI571-resistant, Table 2, read-out: IC50 on the cell proliferation of Ba/F3 (T315I)): < 100 nM; pIC50 ([3]; MTT or CCK8, no unit in cell): 5.18; pIC50 ([4]; MTT or CCK8, no unit in cell): 5.24 |
| Cc1cn(-c2cc(NC(=O)c3ccc(C)c(C#Cc4cnc(N5CCCCC5)nc4)c3)cc(C(F)(F)F)c2)cn1 [D797, 4-methyl-N-(3-(4-methyl-1H-imidazol-1-yl)-5-(trifluoromethyl)phenyl)-3-(2-(2-(piperidin-1-yl)pyrimidin-5-yl)ethynyl)benzamide] | – | – | – | 5.47 | 13000 nM | < 7.00 | < 8.00 | < 7.00 | < 7.00 | – | – | – | – |
| Cc1cn(-c2cc(NC(=O)c3ccc(C)c(C#Cc4cnc5ncnn5c4)c3)cc(C(F)(F)F)c2)cn1 [D798, 3-(2-([1,2,4]-triazolo[1,5-a]pyrimidin-6-yl)ethynyl)-4-methyl-N-(3-(4-methyl-1H-imidazol-1-yl)-5-(trifluoromethyl)phenyl)benzamide] | 5.91 | 1860 nM | 34 nM | – | – | – | – | – | – | > 100 nM | > 10 nM | > 100 nM | – |
| Cc1cn(-c2cc(NC(=O)c3ccc(C)c(C#Cc4cnc5nccn5c4)c3)cc(C(F)(F)F)c2)cn1 [D799, 3-(2-(imidazo[1,2-a]pyrimidin-6-yl)ethynyl)-4-methyl-N-(3-(4-methyl-1H-imidazol-1-yl)-5-(trifluoromethyl)phenyl)benzamide] | 6.21 | > 10000 nM | 36.2 nM | – | – | – | – | – | – | > 100 nM | > 100 nM | > 100 nM | – |
| CCN(CC)c1ncc(C#Cc2cc(C(=O)Nc3cc(-n4cnc(C)c4)cc(C(F)(F)F)c3)ccc2C)cn1 [D807, 3-(2-(2-(diethylamino)pyrimidin-5-yl)ethynyl)-4-methyl-N-(3-(4-methyl-1H-imidazol-1-yl)-5-(trifluoromethyl)phenyl)benzamide] | 4.85 | 13400 nM | 128 nM | – | – | – | – | – | – | > 100 nM | > 100 nM | 126 nM | – |
| Cc1ccc(C(=O)Nc2ccc(CN3CCN(C)CC3)c(C(F)(F)F)c2)cc1C#Cc1cnc2ccnn2c1 [D856, 4-methyl-N-(4-((4-methylpiperazin-1-yl)methyl)-3-(trifluoromethyl)phenyl)-3-(2-(pyrazolo[1,5-a]pyrimidin-6-yl)ethynyl)benzamide] | 7.17 | 10.8 nM | – | – | – | – | – | – | – | – | – | – | pharmacokinetics parameters, overall judgement [6]: adequate pharmacokinetics parameters; pIC50 ([4]; MTT or CCK8, no unit in cell): 6.30; pIC50 (U937 Cell line; U-937, 72 h, MTT or CCK8, no unit in cell): 5.70; pIC50 ([5]; MTT or CCK8, no unit in cell): 8.65 |
